From a compilation of properties of binary mixtures (doi:10.1007/s10953-019-00868-0)

Test: xn = mol fraction of the nth substance listed
Conditions: 101.3 kPa

`NCCNCCN` + CCCC[n+]1ccn(C)c1.F[B-](F)(F)F gave a viscosity (298.15 K, x2 = 0.051) of 6.71 mPa·s, a viscosity (298.15 K, x2 = 0.1986) of 12.1 mPa·s and a viscosity (298.15 K, x2 = 0.2998) of 17.35 mPa·s. For the same compound, the viscosity (298.15 K, x2 = 0.4992) was 31.5 mPa·s, the viscosity (298.15 K, x2 = 0.6974) was 52.6 mPa·s and the viscosity (298.15 K, x2 = 0.8012) was 67.1 mPa·s. For the same compound, the viscosity (298.15 K, x2 = 0.8948) was 82.6 mPa·s, the viscosity (298.15 K, x2 = 0.9496) was 91.9 mPa·s and the viscosity (303.15 K, x2 = 0) was 4.5 mPa·s. For the same compound, the viscosity (303.15 K, x2 = 0.051) was 5.56 mPa·s, the viscosity (303.15 K, x2 = 0.1986) was 10.27 mPa·s and the viscosity (303.15 K, x2 = 0.3995) was 19.78 mPa·s. For the same compound, the viscosity (303.15 K, x2 = 0.8012) was 56.4 mPa·s, the viscosity (303.15 K, x2 = 0.9496) was 76.4 mPa·s and the viscosity (308.15 K, x2 = 0) was 3.86 mPa·s. The viscosity (308.15 K, x2 = 0.051) was 4.85 mPa·s, the viscosity (308.15 K, x2 = 0.1986) was 8.94 mPa·s and the viscosity (308.15 K, x2 = 0.3995) was 16.7 mPa·s. It also gave a viscosity (308.15 K, x2 = 0.4992) of 22.15 mPa·s, a viscosity (308.15 K, x2 = 0.5905) of 28.1 mPa·s and a viscosity (308.15 K, x2 = 0.6974) of 36.3 mPa·s. It also gave a viscosity (308.15 K, x2 = 0.8012) of 46 mPa·s, a viscosity (308.15 K, x2 = 0.8948) of 55.7 mPa·s and a viscosity (308.15 K, x2 = 0.9496) of 60.4 mPa·s. For the same compound, the viscosity (313.15 K, x2 = 0) was 3.4 mPa·s, the viscosity (313.15 K, x2 = 0.051) was 4.31 mPa·s and the viscosity (313.15 K, x2 = 0.2998) was 10.9 mPa·s. The viscosity (313.15 K, x2 = 0.5905) was 24.07 mPa·s, the viscosity (313.15 K, x2 = 0.8012) was 38.8 mPa·s and the viscosity (313.15 K, x2 = 0.8948) was 46.5 mPa·s. The viscosity (313.15 K, x2 = 0.9496) was 49.8 mPa·s, the viscosity (318.15 K, x2 = 0) was 3.05 mPa·s and the viscosity (318.15 K, x2 = 0.1986) was 7.06 mPa·s. For the same compound, the viscosity (318.15 K, x2 = 0.2998) was 9.7 mPa·s, the viscosity (318.15 K, x2 = 0.3995) was 12.77 mPa·s and the viscosity (318.15 K, x2 = 0.4992) was 16.63 mPa·s. It also gave a viscosity (318.15 K, x2 = 0.5905) of 20.88 mPa·s, a viscosity (318.15 K, x2 = 0.6974) of 26.6 mPa·s and a viscosity (318.15 K, x2 = 0.8012) of 33.2 mPa·s. The viscosity (318.15 K, x2 = 0.8948) was 39.2 mPa·s, the viscosity (318.15 K, x2 = 0.9496) was 42 mPa·s and the viscosity (323.15 K, x2 = 0) was 2.7 mPa·s. For the same compound, the viscosity (323.15 K, x2 = 0.051) was 3.55 mPa·s, the viscosity (323.15 K, x2 = 0.1986) was 6.33 mPa·s and the viscosity (323.15 K, x2 = 0.4992) was 14.65 mPa·s. For the same compound, the viscosity (323.15 K, x2 = 0.6974) was 23.13 mPa·s, the viscosity (323.15 K, x2 = 0.8012) was 28.5 mPa·s and the viscosity (323.15 K, x2 = 0.8948) was 33.3 mPa·s. For the same compound, the viscosity (328.15 K, x2 = 0) was 2.45 mPa·s, the viscosity (328.15 K, x2 = 0.051) was 3.2 mPa·s and the viscosity (328.15 K, x2 = 0.1986) was 5.68 mPa·s. It also gave a viscosity (328.15 K, x2 = 0.5905) of 15.53 mPa·s, a viscosity (328.15 K, x2 = 0.8012) of 23.39 mPa·s and a viscosity (328.15 K, x2 = 0.8948) of 26.7 mPa·s. It also gave a viscosity (328.15 K, x2 = 0.9496) of 27.2 mPa·s, a viscosity (333.15 K, x2 = 0) of 2.032 mPa·s and a viscosity (333.15 K, x2 = 0.051) of 2.67 mPa·s. The viscosity (333.15 K, x2 = 0.3995) was 8.72 mPa·s, the viscosity (333.15 K, x2 = 0.5905) was 13.88 mPa·s and the viscosity (333.15 K, x2 = 0.8012) was 21.3 mPa·s. It also gave a viscosity (333.15 K, x2 = 0.8948) of 24.18 mPa·s.

`CCCC[n+]1ccn(C)c1.F[B-](F)(F)F` + NCCNCCN gave a viscosity (313.15 K, x1 = 1) of 51.4 mPa·s, a viscosity (318.15 K, x1 = 1) of 42.1 mPa·s and a viscosity (323.15 K, x1 = 1) of 34.8 mPa·s. It also gave a viscosity (333.15 K, x1 = 1) of 24.7 mPa·s.
